Holding throughout (test): microbe, parasite or virus in culture
Common to all, as to assay type: cell-based, Mycobacterium tuberculosis
What all share (conditions): for MIC: Mycobacterium tuberculosis

Assay [1] deals with Mtb. 234/2005 (MDR-TB).
The test system of assay [2] is Mtb. 9449/2007 (MDR-TB).
The subject of assay [3] is Mtb. Praha 1 (MDR-TB).
Assay [4] relates to Mtb. Praha 4 (MDR-TB).
Assay [5] concerns Mtb. 7357/1998 (MDR-TB).
Assay [6] concerns Mtb. 8666/2010 (MDR-TB).
In assay [7] the test system is Mtb. Praha 131 (XDR-TB).
Setting [8] is: 336 h, read-out: MIC Mtb. 234/2005 14 d.
The mark [9] stands for this setting: 504 h, read-out: MIC Mtb. 234/2005 21 d.
The mark [10] stands for this setting: 336 h, read-out: MIC Mtb. 9449/2007 14 d.
Where [11] appears, read: 504 h, read-out: MIC Mtb. 9449/2007 21 d.
[12] abbreviates: 336 h, read-out: MIC Mtb. Praha 1 14 d.
Setting [13] is: 504 h, read-out: MIC Mtb. Praha 1 21 d.
Where [14] appears, read: 336 h, read-out: MIC Mtb. Praha 4 14 d.
[15] abbreviates: 504 h, read-out: MIC Mtb. Praha 4 21 d.
Setting [16] is: 336 h, read-out: MIC Mtb. 7357/1998 14 d.
Where [17] appears, read: 504 h, read-out: MIC Mtb. 7357/1998 21 d.
The mark [18] stands for this setting: 336 h, read-out: MIC Mtb. 8666/2010 14 d.
[19] abbreviates: 504 h, read-out: MIC Mtb. 8666/2010 21 d.
Where [20] appears, read: 336 h, read-out: MIC Mtb. Praha 131 14 d.
Where [21] appears, read: 504 h, read-out: MIC Mtb. Praha 131 21 d.

Converted amounts (≈) assume the structure as drawn. Like-named read-outs stand apart in the source and are kept apart here.

Regarding “5-Isopropyl-2-methylphenyl (E)-2-(2-isonicotinoylhydrazineylidene)propanoate [3k]”, the “MIC Mtb. 234/2005 14 d” value in assay [1] (14 d incubation) stood at 32 µM. Also, the “MIC Mtb. 234/2005 21 d” value in assay [1] (21 d incubation) is listed as 32 µM. Also, in assay [2] (14 d incubation), the “MIC Mtb. 9449/2007 14 d” value was determined as 32 µM. Moreover, the “MIC Mtb. 9449/2007 21 d” value in assay [2] (21 d incubation) is recorded as 32 µM. Also, the “MIC Mtb. Praha 1 14 d” value in assay [3] (14 d incubation) amounted to 125 µM. Further, in assay [3] (21 d incubation), the “MIC Mtb. Praha 1 21 d” value was found to be 125 µM. Also, the “MIC Mtb. Praha 4 14 d” value in assay [4] (14 d incubation) is 16 µM. Further, the “MIC Mtb. Praha 4 21 d” value in assay [4] (21 d incubation) is on record as 32 µM. Also, in assay [5] (14 d incubation), the “MIC Mtb. 7357/1998 14 d” value was found to be 32 µM. In assay [5] (21 d incubation), the “MIC Mtb. 7357/1998 21 d” value is on record as 32 µM. The “MIC Mtb. 8666/2010 14 d” value in assay [6] (14 d incubation) is reported as 16 µM. The “MIC Mtb. 8666/2010 21 d” value in assay [6] (21 d incubation) is on record as 32 µM. Further, the “MIC Mtb. Praha 131 14 d” value in assay [7] (14 d incubation) turned out to be 32 µM. Moreover, the “MIC Mtb. Praha 131 21 d” value in assay [7] (21 d incubation) was determined as 64 µM.

Consider `C/C(=N\NC(=O)c1ccncc1)C(=O)Oc1cc(Cl)ccc1Oc1ccc(Cl)cc1Cl` [3o, 5-Chloro-2-(2,4-dichlorophenoxy)phenyl (E)-2-(2-isonicotinoylhydrazineylidene)propanoate], for which the MIC in assay [1] (setting [8]) stood at 32 µM (≈ 15.3 µg/mL); in assay [1] (setting [9]), 32 µM (≈ 15.3 µg/mL); in assay [2] (setting [10]) it was 32 µM (≈ 15.3 µg/mL); in assay [2] (setting [11]), 32 µM (≈ 15.3 µg/mL); in assay [3] (setting [12]) it was 125 µM (≈ 59.8 µg/mL); in assay [3] (setting [13]) it was 125 µM (≈ 59.8 µg/mL). Further, the MIC in assay [4] (setting [14]), in assay [4] (setting [15]), in assay [5] (setting [16]), in assay [5] (setting [17]), in assay [6] (setting [18]) and in assay [6] (setting [19]) was 32 µM (≈ 15.3 µg/mL) each time. For the same compound, the MIC in assay [7] (setting [20]) and in assay [7] (setting [21]) was 32 µM (≈ 15.3 µg/mL) in each case.

As for `CC(=O)Nc1ccc(OC(=O)C(C)=NNC(=O)c2ccncc2)cc1` [3p, 4-Acetamidophenyl 2-(2-isonicotinoylhydrazineylidene)propanoate], the MIC was 32 µM (≈ 10.9 µg/mL) in assay [1] (setting [8]); 64 µM (≈ 21.8 µg/mL) in assay [1] (setting [9]); 32 µM (≈ 10.9 µg/mL) in assay [2] (setting [10]); 64 µM (≈ 21.8 µg/mL) in assay [2] (setting [11]); 125 µM (≈ 42.5 µg/mL) in assay [3] (setting [12]); 125 µM (≈ 42.5 µg/mL) in assay [3] (setting [13]). Besides, the MIC in assay [4] (setting [14]) amounted to 32 µM (≈ 10.9 µg/mL); in assay [4] (setting [15]), 32 µM (≈ 10.9 µg/mL); in assay [5] (setting [16]), 16 µM (≈ 5.45 µg/mL); in assay [5] (setting [17]) it was 32 µM (≈ 10.9 µg/mL); in assay [6] (setting [18]), 32 µM (≈ 10.9 µg/mL); in assay [6] (setting [19]), 32 µM (≈ 10.9 µg/mL). In addition, the MIC turned out to be 32 µM (≈ 10.9 µg/mL) in assay [7] (setting [20]) and 64 µM (≈ 21.8 µg/mL) in assay [7] (setting [21]).

For `C/C(=N\NC(=O)c1ccncc1)C(=O)Oc1cc(C(C)C)ccc1C` [3l, 2-Isopropyl-5-methyphenyl (E)-2-(2-isonicotinoylhydrazineylidene)propanoate], the MIC in assay [1] (setting [8]) amounted to 16 µM (≈ 5.43 µg/mL); in assay [1] (setting [9]) it was 32 µM (≈ 10.9 µg/mL); in assay [2] (setting [10]) it was 16 µM (≈ 5.43 µg/mL); in assay [2] (setting [11]), 32 µM (≈ 10.9 µg/mL); in assay [3] (setting [12]), 32 µM (≈ 10.9 µg/mL); in assay [3] (setting [13]), 64 µM (≈ 21.7 µg/mL). Besides, the MIC in assay [4] (setting [14]) worked out at 8 µM (≈ 2.72 µg/mL); in assay [4] (setting [15]), 16 µM (≈ 5.43 µg/mL); in assay [5] (setting [16]) it was 16 µM (≈ 5.43 µg/mL); in assay [5] (setting [17]), 32 µM (≈ 10.9 µg/mL); in assay [6] (setting [18]) it was 16 µM (≈ 5.43 µg/mL); in assay [6] (setting [19]), 16 µM (≈ 5.43 µg/mL). Further, the values for the MIC in assay [7] (setting [20]) and in assay [7] (setting [21]) were 32 µM (≈ 10.9 µg/mL) and 64 µM (≈ 21.7 µg/mL), respectively.

Turning to `C/C(=N\NC(=O)c1ccncc1)C(=O)Oc1cccc2ccccc12` [3i, Naphthalen-1-yl (E)-2-(2-isonicotinoylhydrazineylidene)propanoate], the MIC in assay [1] (setting [8]) came out at 16 µM (≈ 5.33 µg/mL); in assay [1] (setting [9]), 32 µM (≈ 10.7 µg/mL); in assay [2] (setting [10]) it was 32 µM (≈ 10.7 µg/mL); in assay [2] (setting [11]), 32 µM (≈ 10.7 µg/mL); in assay [3] (setting [12]) it was 64 µM (≈ 21.3 µg/mL); in assay [3] (setting [13]), 125 µM (≈ 41.7 µg/mL). The MIC was found to be 16 µM (≈ 5.33 µg/mL) in assay [4] (setting [14]); 32 µM (≈ 10.7 µg/mL) in assay [4] (setting [15]); 16 µM (≈ 5.33 µg/mL) in assay [5] (setting [16]); 32 µM (≈ 10.7 µg/mL) in assay [5] (setting [17]); 16 µM (≈ 5.33 µg/mL) in assay [6] (setting [18]); 16 µM (≈ 5.33 µg/mL) in assay [6] (setting [19]). Also, the MIC in assay [7] (setting [20]) and in assay [7] (setting [21]) was 32 µM (≈ 10.7 µg/mL) in each case.

Regarding `C/C(=N\NC(=O)c1ccncc1)C(=O)Oc1ccc(Cl)cc1` [3g, 4-Chlorophenyl (E)-2-(2-isonicotinoylhydrazineylidene)propanoate], the MIC in assay [1] (setting [8]) was found to be 16 µM (≈ 5.08 µg/mL); in assay [1] (setting [9]) it was 32 µM (≈ 10.2 µg/mL); in assay [2] (setting [10]), 16 µM (≈ 5.08 µg/mL); in assay [2] (setting [11]) it was 16 µM (≈ 5.08 µg/mL); in assay [3] (setting [12]), 8 µM (≈ 2.54 µg/mL); in assay [3] (setting [13]), 8 µM (≈ 2.54 µg/mL). Moreover, the MIC is 16 µM (≈ 5.08 µg/mL) in assay [4] (setting [14]); 16 µM (≈ 5.08 µg/mL) in assay [4] (setting [15]); 16 µM (≈ 5.08 µg/mL) in assay [5] (setting [16]); 16 µM (≈ 5.08 µg/mL) in assay [5] (setting [17]); 8 µM (≈ 2.54 µg/mL) in assay [6] (setting [18]); 16 µM (≈ 5.08 µg/mL) in assay [6] (setting [19]). Moreover, the MIC in assay [7] (setting [20]) and in assay [7] (setting [21]) was 8 µM (≈ 2.54 µg/mL) throughout.

Values taken from PMC8703412 (Pharmaceuticals, 2021).
